Data as given in patent US20150342954A1, “2-BENZYL, 3-(PYRIMIDIN-2-YL) SUBSTITUTED PYRAZOLES USEFUL AS SGC STIMULATORS” (IRONWOOD PHARMACEUTICALS, INC., priority 2011, published 2015).

Tested on: Thoracic aortic rings
Assay: Alternative thoracic aortic rings assay (Example 5; original resting tension as 100% inhibition)
Conditions: rat thoracic aortic rings contracted with phenylephrine; for Aortic Ring Percent Relaxation at 1 μM: compound at 1 μM; for Aortic Ring Percent Relaxation at 3 μM: compound at 3 μM; for Aortic Ring Percent Relaxation at 10 μM: compound at 10 μM; for EC50: read-out: Aortic Ring EC50
Procedure: Thoracic aortic rings were dissected from anesthetized (isoflurane) male Sprague-Dawley rats weighing 275-299 g. Tissues were immediately transferred to ice-cold Krebs-Henseleit solution, which had been aerated with 95% 02 and 5% CO2 for 30 minutes. Following removal of connective tissue, aortic sections were cut into 4 rings (˜2 mm each) and suspended on 2 L-shaped hooks, with one hook fixed at the bottom of the tissue bath (Schuler Organ Bath, Harvard Apparatus) and the other connected to a force transducer (F30 Force Transducer, Harvard Apparatus). Baths contained Krebs Henseleit solution (10 mL) heated to 37° C. and aerated with 95% 02 and 5% CO2. Rings were brought to an initial tension of 0.3-0.5 g and gradually raised to a resting tension of 1.0 g over 60 minutes. Rings were rinsed with Krebs Henseleit solution (heated to 37° C. and aerated with 95% 02 and 5% CO2) at 15 minute intervals until a stable baseline was obtained. Rings were considered to be stable after a resting tension of 1.0 g was maintained (for approximately 10 minutes) without need for adjustment. Rings were then contracted with 100 ng/mL phenylephrine by adding 100 μL of a 10 μg/mL phenylephrine stock solution. Tissues achieving a stable contraction were then treated in a cumulative, dose dependent manner with test compounds prepared in dimethylsulfoxide (DMSO). In some cases, tissues were rinsed three times over a 5 minute period with Krebs-Heinseleit's solution (heated to 37° C. and aerated with 95% 02 and 5% CO2), allowed to stabilize at baseline, and then used for characterization of other test articles or DMSO effects. All data were collected using the HSE-ACAD software provided by Harvard Apparatus. […] EC50 values were calculated from concentration-response curves generated with GraphPad Prism Software.
Biological Activity Measurement by the Thoracic Aortic Rings Assay
The biological data for some of a compound of Table I, in comparison with the known compound, BAY 41-2272, as the reference compound, determined by the thoracic aorta ring assay of Example 5 are presented in Table 6 below.

Row | SMILES | Aortic Ring Percent Relaxation at 1 μM | Aortic Ring Percent Relaxation at 3 μM | Aortic Ring Percent Relaxation at 10 μM | EC50 [nM]
1 | Nc1nc(-c2cc(-c3ccon3)n(Cc3ccccc3F)n2)ncc1NC(=O)C1(c2ccccc2)CC1 [Compound 27] | F (80 to <100%) | G (100 to <120%) | G (100 to <120%) | < 2000
2 | Nc1nc(-c2cc(-c3ccon3)n(Cc3ccccc3F)n2)ncc1NC(=O)C1(F)CC1 [Compound 35] | G (100 to <120%) | H (higher than 120%) | H (higher than 120%) | < 2000
3 | Nc1nc(-c2cc(-c3ccon3)n(Cc3cccc(F)c3F)n2)ncc1NC(=O)C1(C(F)(F)F)CC1 [Compound 40] | G (100 to <120%) | G (100 to <120%) | G (100 to <120%) | < 2000
